Measured values from article PMC10822168, “Development of potent isoflavone-based formyl peptide receptor 1 (FPR1) antagonists and their effects in gastric cancer cell models” (European journal of medicinal chemistry, 2023).
Read-outs that look alike come from different tables or passages of the source. Each block holds one molecule with its values, some of them ahead of it.

Experiments:
[1] = test system: NCl–N87 cells; assay: MTT viability assay in NCl–N87 cells; format: cell-based; conditions: Homo sapiens
Excerpt: (§1) We decided to study, for the first time, the effect of pharmacological blockade of FPR1 on cell proliferation, cell migration, and angiogenesis in GC by using our antagonists 24a and 25a. We first assessed the expression levels of FPR1 and FPR2 mRNA in four GC cell lines, i.e., HGC27, derived from human gastric carcinoma, KATOIII, AGS, and NCl–N87, derived from human gastric adenocarcinoma. […] We first assessed the effect of compounds 24a and 25a on cell viability in both cell lines at 24, 48, and 72 h using the MTT assay (Table 2).
(§2) AGS and NCl–N87 human gastric cancer cell lines were purchased and authenticated by American Type Culture Collection (Manassas, Virginia, USA). All cell culture components were purchased from Sigma-Aldrich (Milan, Italy) and Celbio s.r.l. (Milano, Italy).
(§3) AGS and NCl–N87 human gastric cancer cell lines were grown in RPMI high glucose supplemented with 10% fetal bovine serum, 2 mM glutamine, 100 U/mL penicillin, 100 μg/mL streptomycin, in a humidified incubator at 37 °C with a 5% CO2 atmosphere.
(§4) Determination of cell growth was performed using the MTT assay at 24h, 48 h, and 72 h. On day 1, 5000 cells/well were seeded into 96-well plates in a volume of 100 μL. On day 2, the test compound was added at different concentrations. In all the experiments, the solvent used to dissolve the drug (ethanol, DMSO) was added in each control to evaluate possible cytotoxicity. After the established incubation time with drugs, MTT (0.5 mg/mL) was added to each well. Following 3 h incubation at 37 °C, the supernatant was removed. The formazan crystals were solubilized using 100 μL of DMSO and the absorbance values at 570 and 630 nm were determined on a Victor 3 microplate reader (PerkinElmer).

[2] = test system: AGS cells; assay: MTT viability assay in AGS cells; format: cell-based; conditions: Homo sapiens
Excerpt: as §1, §2, §3, §4

[3] = test system: NCl–N87 cells; assay: Muse Ki67 proliferation assay in NCl–N87 cells; format: cell-based, human; conditions: NCl–N87, 5 μM, 24 h; control cells 81.3%
Method: Representative flow cytometry charts reporting percentage of Ki67 negative (blue) and positive (red) cells (panel A). Statistical charts reporting the results from three independent experiments and expressed as means ± SD (panel B). Statistical analysis was assessed by comparing the values obtained using single drug treatment to those of corresponding untreated cells and the combined treatments to those of the single treatments, *p < 0.05; **p < 0.001; ***p < 0.0001.
The Muse Ki67 Proliferation Assay was used with the Guava Muse Cell Analyzer according to manufacturer’s instructions (Luminex Corporation, Austin, USA). Briefly, the cells were stained after fixation and permeabilization procedures by using Hu Ki67 or Hu IgG1 control fluorochrome-conjugated antibodies to distinguish Ki67^+ or Ki67^− cells, respectively. The software provided the percentage of both Ki67(+) and Ki67(−) cells.

[4] = test system: ANGPT2 mRNA; assay: Real-time PCR of ANGPT2 mRNA expression in NCl–N87 and AGS cells; format: cell-based, human; conditions: 24 h, fMLF 10 nM, antagonists 1 or 2 μM, normalized to GAPDH, untreated = 1
Excerpt: (§5) It has been reported that FPR1 can exert a tumor suppressor function in human GC by inhibiting angiogenesis and that silencing of the receptor increases the constitutive proangiogenic potential of GC cells. Therefore, we assessed the effect of 24a and 25a on the mRNA expression level and secretion of the proangiogenic factors, the vascular growth factor A (VEGFA), and the angiopoietin 2. […] These effects were more pronounced in NCl–N87 cells and resulted more strongly for 25a than 24a. The values obtained after each treatment were normalized to the expression of GAPDH and compared to the reference value of the two genes in untreated cells, which were set equal to 1 (Fig. 9).
(§6) Fig. 9. Effect of 24a and 25a on mRNA expression of VGFA and ANGPT2 in NCl–N87 and AGS cell lines. Real-time PCR experiments in NCl–N87 and AGS cells with specific primers for VEGFA and ANGPT2 genes. The mRNA expression was normalized on the GAPDH housekeeping gene. Expression analysis was performed after treatment with fMLF (10 nM) and 24a or 25a (1, 2, 5 μM) administrated alone or combining the lowest dose of 24a or 25a with fMLF. All expression values were calculated against the value of untreated PTX-sensitive cells, set equal to 1. Statistical analysis was assessed by comparing the values obtained using single drug treatment to those of corresponding untreated cells and the combined treatments to those of single treatments. The values of untreated PTX-resistant cells were compared with those of untreated PTX-sensitive ones. Data were mean ± SD (n = 3). *p < 0.05, **p < 0.001, ***p < 0.0002, ****p < 0.0001.
(§7) Total RNA was extracted from FPR1 antagonist-treated NCl–N87 and AGS treated cells using the Qiagen RNeasy Mini Kit (Qiagen, Hilden, Germany) following the manufacturer’s instructions. Samples were retro-transcribed using the iScript Advanced cDNA Synthesis Kit (Bio-Rad Laboratories, California, USA). Real-Time-PCRs analyzed cDNA samples for the evaluation of VEGFA and ANGPT2 expression. […] Relative quantification was performed using the ddCT method.

[5] = test system: VEGFA mRNA; assay: Real-time PCR of VEGFA mRNA expression in NCl–N87 and AGS cells; format: cell-based, human; conditions: 24 h, fMLF 10 nM, antagonists 1 or 2 μM, normalized to GAPDH, untreated = 1
Excerpt: as §5, §6, §7

[6] = molecular target: T1, human FPR1 (Homo sapiens, UniProt P21462); assay: Antagonist effect on Ca2+ mobilization in FPR1-HL60 transfected cells; conditions: inhibition of Ca2+ mobilization induced by 5 nM fMLF, N.A. = Not Active; for IC50: read-out: FPR1-HL60 (IC50)
T1 sequence (P21462 1-350): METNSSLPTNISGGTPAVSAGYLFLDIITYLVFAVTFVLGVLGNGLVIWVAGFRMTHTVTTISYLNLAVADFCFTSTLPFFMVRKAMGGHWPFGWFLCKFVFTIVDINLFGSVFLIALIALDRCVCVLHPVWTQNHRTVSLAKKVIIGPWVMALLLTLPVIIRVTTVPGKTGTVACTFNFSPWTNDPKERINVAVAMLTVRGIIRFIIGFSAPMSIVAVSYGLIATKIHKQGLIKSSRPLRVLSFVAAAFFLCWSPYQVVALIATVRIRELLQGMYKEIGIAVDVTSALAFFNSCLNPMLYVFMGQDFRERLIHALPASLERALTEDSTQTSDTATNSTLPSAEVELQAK

[7] = in vitro; conditions: rat, pH 7.4
[8] = 48 h, read-out: NCl–N87 EC50 (μM ± S.E.M.) 48 h
[9] = read-out: NCl–N87 EC50 (μM ± S.E.M.) 24 h, 24 h
[10] = read-out: NCl–N87 EC50 (μM ± S.E.M.) 72 h, 72 h
[11] = 48 h, read-out: AGS EC50 (μM ± S.E.M.) 48 h
[12] = read-out: AGS EC50 (μM ± S.E.M.) 24 h, 24 h
[13] = read-out: AGS EC50 (μM ± S.E.M.) 72 h, 72 h

SMILES: CCCc1cc2c(=O)c(-c3cccc(OC)c3)c(C)oc2cc1OC(C)=O [Compound 26b, 3-(3-Methoxyphenyl)-2-methyl-4-oxo-6-propyl-4H-chromen-7-yl acetate]
IC50 [6]: 0.15 ± 0.05 µM

SMILES: CCCCCCc1cc2c(=O)c(-c3ccccc3OC)c(C)oc2cc1OCC(F)F [Compound 30, 7-(2,2-Difluoroethoxy)-6-hexyl-3-(2-methoxyphenyl)-2-methyl-4H-chromen-4-one]
remaining at 0.5 h, 10 µM ([7]; rat liver microsomes): 18%

SMILES: CCCCCCc1cc2c(=O)c(-c3ccccc3OC)c(C)oc2cc1NC(C)=O [Compound 35a, N-[6-Hexyl-3-(2-methoxyphenyl)-2-methyl-4-oxo-4H-chromen-7-yl]acetamide]
remaining at 0.5 h, 10 µM ([7]; rat liver microsomes): 14%

SMILES: CCCc1cc2c(=O)c(-c3ccccc3OC)c(C)oc2cc1NC(C)=O [Compound 36, N-[3-(2-methoxyphenyl)-2-methyl-4-oxo-6-propyl-4H-chromen-7-yl]acetamide]
remaining at 0.5 h, 10 µM ([7]; rat liver microsomes): 15%

SMILES: CCCCCCC(=O)Oc1cc2oc(C)c(-c3cccc(OC)c3)c(=O)c2cc1C [Compound 37b, 3-(3-Methoxyphenyl)-2,6-dimethyl-4-oxo-4H-chromen-7-yl heptanoate]
IC50 [6]: 21.9 ± 6.5 µM

SMILES: CCCc1cc2c(=O)c(-c3ccccc3OC)c(C)oc2cc1OC(=O)N(C)C [Compound 39, 3-(2-Methoxyphenyl)-2-methyl-4-oxo-6-propyl-4H-chromen-7-yl dimethylcarbamate]
remaining at 0.5 h, 10 µM ([7]; Liver): 10% | FPR1-HL60 (IC50, μM) [6]: practically inactive | IC50 [6]: 28.9 ± 7.6 µM

Second part, led by results:

EC50 [2, 11]: 11 ± 1.91 µM | EC50 [2, 12]: 24.7 ± 4 µM | EC50 [2, 13]: 7.55 ± 1.75 µM
SMILES: CCCCCCc1cc2c(=O)c(-c3ccccc3OC)c(C)oc2cc1OC(C)=O [Compound 24a, 6-Hexyl-3-(2-methoxyphenyl)-2-methyl-4-oxo-4H-chromen-7-yl acetate]
EC50 [1, 8]: 8.65 ± 0.65 µM | EC50 [1, 9]: 32.9 ± 2.95 µM | EC50 [1, 10]: 11.5 ± 1.2 µM | percentage of Ki67(+) cells [3]: 73.1% | angiopoietin 2 (ANGPT2) mRNA expression [4]: dose-dependent increase | VEGFA mRNA expression [5]: dose-dependent increase

EC50 [2, 11]: 8 ± 0.1 µM | EC50 [2, 12]: 16.7 ± 0.7 µM | EC50 [2, 13]: 5.45 ± 3.45 µM
SMILES: CCCCCCc1cc2c(=O)c(-c3ccccc3OC)c(C(F)(F)F)oc2cc1OC(C)=O [Compound 25a, 6-Hexyl-3-(2-methoxyphenyl)-4-oxo-2-(trifluoromethyl)-4H-chromen-7-yl acetate]
EC50 [1, 8]: 10.2 ± 1 µM | EC50 [1, 9]: 13.3 ± 1.88 µM | EC50 [1, 10]: 2.65 ± 0.5 µM | angiopoietin 2 (ANGPT2) mRNA expression [4]: dose-dependent increase | VEGFA mRNA expression [5]: dose-dependent increase

IC50 [6]: 0.16 ± 0.03 µM
SMILES: CCCCCCc1cc2c(=O)c(-c3cccc(OC)c3)c(C(F)(F)F)oc2cc1OC(C)=O [Compound 25b, 6-Hexyl-3-(3-methoxyphenyl)-4-oxo-2-(trifluoromethyl)-4H-chromen-7-yl acetate]

IC50 [6]: 0.8 ± 0.3 µM
SMILES: CCCCc1cc2c(=O)c(-c3ccccc3OC)c(C)oc2cc1OC(C)=O [Compound 28, 6-Butyl-3-(2-methoxyphenyl)-2-methyl-4-oxo-4H-chromen-7-yl acetate]

IC50 [6]: 0.4 ± 0.1 µM
SMILES: CCCCCc1cc2c(=O)c(-c3ccccc3OC)c(C)oc2cc1OC(C)=O [Compound 29, 3-(2-Methoxyphenyl)-2-methyl-4-oxo-6-pentyl-4H-chromen-7-yl acetate]
